Test [1] concerns MDA-MB-231 and OVCAR5 cells. The test is described as follows: PI-based cell-cycle analysis by flow cytometry. Also noted: species or system human. The note with it: MDA-MB-231 (2 μM) and OVCAR5 (0.5 μM) cells; 24 h. How it is done: MDA-MB-231 cells were treated with 2 μM LY2835219 or ZC-22, and OVCAR5 cells were treated with 0.5 μM LY2835219 or ZC-22 for 24 h. After washing in PBS, cells were fixed with 70% ethanol on ice for 2 h, followed by centrifugation at 300× g—for 20 min at 4 °C, and then subjected to a propidium iodide (PI, BD Biosciences, Franklin Lakes, NJ, USA) based cell-cycle analysis according to the manufacturer’s protocols. Cell-cycle distribution was analyzed by flow cytometry. Each experiment was performed in triplicates.
(§1) Figure 3 ZC-22 inhibits CDK4/6 and PARP to induce cell-cycle arrest, DNA damage, and apoptosis in breast and ovarian cancer cells. […] The levels of CDK4/6 and p-Rb/Rb were determined by Western blot (A). Cell-cycle distribution was analyzed by flow cytometry (B). […] (D,E) Representative pictures (left) and quantification of percentage (right) of γH2A.X-positive cells in MDA-MB-231 cells treated with 2 μM OLA or ZC-22 for 24 h (D), or OVCAR5 cells treated with 0.5 μM OLA or ZC-22 for 24 h (E). Values are means ± SD, n = 3. * p < 0.05, ** p < 0.01, and *** p < 0.001 for comparisons with the DMSO-treated group. p value was calculated using an unpaired t-test. (F,G) Representative pictures (F) and quantification of percentage (G) of apoptotic cells in MDA-MB-231 cells treated with 2 μM LY-2, OLA, or ZC-22 for 48 h or in OVCAR5 cells treated with 0.5 μM LY-2, OLA or ZC-22 for 48 h. […]
(Flow cytometry measures light scatter and fluorescence of single cells or particles in a stream.)

For another test, the system named is PARP. The test is described as follows: Western blot of PAR, a direct product of PARP. Format: cell-based, human. The note with it: MDA-MB-231 (2 μM) and OVCAR5 (0.5 μM) cells, 48 h. The method, then:
Cells were washed with PBS, collected with scraper, and then lysed in RIPA buffer containing 1× protease and phosphatase inhibitors for 30 min on ice. The supernatants were collected by centrifugation at full speed for 10 min at 4 °C and subjected to SDS-PAGE followed by immunoblotting as described before. Signals were detected using enhanced chemiluminescence (Millipore, Burlington, MA, USA) and captured by the G: BOX Chemi XRQ gel doc System (Syngene, Cambridge, UK).
as §1, with “cells. (A,B) MDA-MB-231 cells were treated with 2 μM LY2835219 (LY-2) or ZC-22.” for “cells.”, “[…] Values are means ± SD, n = 3. * p < 0.05, ** p < 0.01,” for “(F,G) Representative pictures (F)”, “*** p < 0.001 vs. the DMSO-treated group. p value was calculated using an unpaired t-test.” for “quantification of percentage (G) of apoptotic cells in MDA-MB-231 cells treated with 2 μM LY-2, OLA, or ZC-22 for 48 h or in OVCAR5 cells treated with 0.5 μM LY-2, OLA or ZC-22 for 48 h.”

For `Cc1nc2c(F)cc(-c3nc(Nc4ccc(N5CCN(C(=O)c6cc(Cc7n[nH]c(=O)c8ccccc78)ccc6F)CC5)cn4)ncc3F)cc2n1C(C)C` [ZC-22, 4-(4-fluoro-3-(4-(6-((5-fluoro-4-(4-fluoro-1-isopropyl-2-methyl-1H-benzo[d]imidazole-6-yl)pyrimidin-2-yl)amino)pyridin-3-yl)piperazine-1-carbonyl)benzyl)phthalazin-1(2H)-one], the cell-cycle distribution entry in test [1] is given as “dramatically arrested cell cycle at the G1/S check-point”. Also, the PAR expression result in the test with PARP was “effectively inhibited PAR expression”.

For the origin of these results see article PMC8911181, “A Novel CDK4/6 and PARP Dual Inhibitor ZC-22 Effectively Suppresses Tumor Growth and Improves the Response to Cisplatin Treatment in Breast and Ovarian Cancer” (International Journal of Molecular Sciences, 2022).
